From patent publication US5869448A, “Cyclic CS-1 peptidomimetics, compositions and methods of using same” (Cytel Corporation, priority 1995, dated 1999) come the findings set out here.

The assay concerns Porcine peripheral blood lymphocytes. Put plainly: In vitro porcine allograft model, transendothelial lymphocyte migration. The assay is classed as cell-based. Particulars: 10 μg/ml in the medium, IL-1β-stimulated SMC. How it is done:
A similar study is carried out in vitro using porcine coronary artery endothelial cells (EC; as are present in the IEL) and smooth muscle cells (SMC; as are present in the medial layer of the artery). The two cell types are cultured using a membrane transwell system, with the SMC on the bottom layer in M-199 medium (Gibco Labs.). The SMC are stimulated with 100 ng/ml of interleukin-1β (IL-1β) for 24 hours prior to the start of the assay. Porcine peripheral blood lymphocytes are separated by Ficoll-Hypaque, radiolabeled and incubated overnight (about 18 hours) on the EC.
Transendothelial lymphocyte migration in the IL-1β-stimulated SMC is observed as compared to unstimulated SMC (p<0.05).

Positions of bridges follow the written chain, without caps; N, C: chain ends. Residues, ends and D or L forms follow the SMILES beside them.

`CC(C)C[C@@H]1NC(=O)[C@H](Cc2ccccc2)NC(=O)[C@@H](N)CSSC[C@@H](C(N)=O)NC(=O)[C@H](CO)NC(=O)[C@@H]2CCCN2C(=O)[C@H](Cc2ccccc2)NC(=O)[C@H](CC(=O)O)NC1=O` [SEQ ID NO:13, CFLDFPSC--NH2] (H-CFLDFPSC-NH2; disulfide 1-8): the transendothelial lymphocyte migration result was “reduces lymphocyte migration”.
